Test systems include HOP-92 NSCLC; HT29 colon; RPMI-8226 leukemia; SK-MEL-2 melanoma; SK-OV-3 ovarian; SN12C renal; UACC-257 melanoma; UO-31 renal; CAKI-1 renal.
Common to all, as to assay: NCI tumour cell line growth inhibition, 48 h

Our source for the TGI and GI50 values is PubChem BioAssay (NCI).

Values joined by “and” are separate entries in the source; they are usually repeats but may differ in a detail not shown here. Equal values may be shown once.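 Test compounds were applied to cells in 96-well plates for 48 hours at 5 doses. Here, GI50 denotes the concentration required for 50% inhibition of growth. The concentration for full growth arrest is given as TGI.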

With `CN1CCCCC(C(O)(c2ccccc2)c2ccccc2)C1=O` (stereo not drawn), the TGI in the test on HOP-92 NSCLC is more than 100 µM; with HT29 colon it was more than 100 µM; with RPMI-8226 leukemia, 65.7 µM; in the test on SK-MEL-2 melanoma, more than 100 µM; in the test on SK-OV-3 ovarian, more than 100 µM; in the test on SN12C renal, more than 100 µM. In addition, the TGI in the test on UACC-257 melanoma and in the test with UO-31 renal was more than 100 µM each time.

As for `COc1cc(C2S/C(=C/c3ccccc3)C(=O)N2c2cccc([N+](=O)[O-])c2)cc(OC)c1OC` (stereo not drawn), the TGI with CAKI-1 renal was more than 100 µM; in the test on HOP-92 NSCLC, more than 100 µM; with HT29 colon, more than 100 µM; in the test on SK-MEL-2 melanoma, 67.9 µM; in the test on SK-OV-3 ovarian, more than 100 µM; in the test on SN12C renal it was more than 100 µM. Also, the TGI with UACC-257 melanoma and in the test on UO-31 renal was more than 100 µM throughout.

For the molecule `CC1(C)[C@@H]2C[C@H]1C(Cc1cccc(C[C@H]3c4cc(-c5ccccn5)ncc4[C@H]4C[C@@H]3C4(C)C)c1)c1cc(-c3ccccn3)ncc12` (stereo partly drawn), the TGI in the test on CAKI-1 renal is more than 100 µM; in the test with HT29 colon, more than 100 µM; in the test on RPMI-8226 leukemia, 32.1 µM; in the test on SK-MEL-2 melanoma, more than 100 µM; in the test with SK-OV-3 ovarian it was more than 33.4 µM; in the test on SN12C renal, more than 100 µM. Also, the figures for the TGI in the test with UACC-257 melanoma and in the test on UO-31 renal were more than 42.4 µM and 6.15 µM, respectively.

As to `c1ccc(C2=C(c3ccccc3)P(c3ccccc3)C2)cc1` (stereo not drawn), the TGI with CAKI-1 renal, in the test on HOP-92 NSCLC, with HT29 colon, in the test with SK-MEL-2 melanoma, with SK-OV-3 ovarian and in the test on SN12C renal was more than 100 µM in each case. The same molecule came in with a TGI with UACC-257 melanoma of more than 100 µM.

On to `NC(=O)CS(=O)CC(N)C(=O)O` (stereo not drawn), for which the TGI with CAKI-1 renal, with HOP-92 NSCLC, in the test with HT29 colon, in the test on SK-MEL-2 melanoma, in the test on SN12C renal and with UACC-257 melanoma was more than 100 µM each time. Also, the TGI in the test with UO-31 renal was more than 100 µM.

As to `CN1CC2CC(C1)c1cccc(=O)n1C2` (stereo not drawn), the TGI in the test on CAKI-1 renal, in the test on HOP-92 NSCLC, with HT29 colon, in the test on SK-MEL-2 melanoma, in the test on SK-OV-3 ovarian and in the test with SN12C renal was more than 100 µM each time. Moreover, the TGI in the test with UACC-257 melanoma and in the test on UO-31 renal was more than 100 µM in each case.

On to `CN(C)CC(NC(NCS)C(=O)NCCNc1ccc(NCCNC(=O)C(NCS)NC(CN(C)C)OCCl)c2c1C(=O)c1c(O)ccc(O)c1C2=O)OCCl` (stereo not drawn), for which the TGI in the test with CAKI-1 renal is 0.119 µM; in the test on HT29 colon it was 0.278 µM and 1.58 µM; in the test on RPMI-8226 leukemia it was 0.03 µM; with SK-MEL-2 melanoma, 2.99 µM; in the test with SK-OV-3 ovarian, 4.11 µM; in the test with SN12C renal, 0.477 µM. The TGI in the test with UACC-257 melanoma is 3.6 µM; in the test on UO-31 renal it was 1.52 µM. Moreover, the GI50 in the test on HT29 colon was 0.228 µM; in the test with SN12C renal it was less than 0.001 µM.

As for `CC(C)C1=CC23CCC4C(C)(C(=O)O)CCCC4(C)C2CC1C(C(=O)O)C3C(=O)O` (stereo not drawn), the TGI in the test on CAKI-1 renal, with HOP-92 NSCLC, with HT29 colon, with SK-MEL-2 melanoma, with SN12C renal and in the test on UO-31 renal was more than 100 µM in each case.

Regarding `O=C(C#Cc1cn(C2CC(O)C(CO)O2)c(=O)[nH]c1=O)c1ccccc1` (stereo not drawn), the TGI in the test with CAKI-1 renal is more than 100 µM; in the test with HOP-92 NSCLC, 53.2 µM; in the test with HT29 colon it was more than 100 µM; in the test with RPMI-8226 leukemia, more than 100 µM; with SK-MEL-2 melanoma, more than 100 µM; with SK-OV-3 ovarian it was more than 100 µM. In addition, the TGI in the test with SN12C renal, in the test with UACC-257 melanoma and with UO-31 renal was more than 100 µM in each case.

Regarding `CCCCCCOc1ccc(NC2=C(Cl)C(=O)c3ncccc3C2=O)cc1`, the TGI with HOP-92 NSCLC was more than 10 µM; with HT29 colon, more than 10 µM; with SK-OV-3 ovarian, more than 10 µM; in the test on SN12C renal it was 3.12 µM; in the test with UACC-257 melanoma, 4.54 µM; with UO-31 renal, 2.72 µM.

`COc1ccc2c(c1)-c1oc3ccccc3c(=O)c1CO2`: the TGI in the test with CAKI-1 renal was 50.6 µM; with HT29 colon, more than 100 µM; in the test on RPMI-8226 leukemia, more than 100 µM; in the test with SK-MEL-2 melanoma it was 83.3 µM; in the test on SK-OV-3 ovarian it was more than 100 µM; with SN12C renal, 77.9 µM. In addition, the TGI with UACC-257 melanoma is 99.3 µM; with UO-31 renal, 88.4 µM.

On to `COc1cc(-c2nc3nc(N4CCN(C)CC4)ccc3[nH]2)c(OC)c2[nH]c(COC(C)=O)nc12`, for which the TGI with CAKI-1 renal is more than 100 µM; in the test on HOP-92 NSCLC, more than 100 µM; in the test on HT29 colon it was 61.8 µM; in the test on SK-MEL-2 melanoma, 47.4 µM; in the test with SK-OV-3 ovarian, 82.1 µM; with SN12C renal it was 98.8 µM. In addition, the results for the TGI in the test with UACC-257 melanoma and in the test with UO-31 renal were 61.4 µM and 85.2 µM, respectively.

`O=C(O)c1ccc(Nc2nc3ccccc3nc2C(=O)O)cc1`: the TGI with CAKI-1 renal, in the test with HOP-92 NSCLC, with HT29 colon, with RPMI-8226 leukemia, in the test on SK-MEL-2 melanoma and with SK-OV-3 ovarian was more than 100 µM each time. The TGI in the test with SN12C renal, in the test on UACC-257 melanoma and in the test on UO-31 renal was more than 100 µM each time.

Take `COc1ccc(C2c3cc4c(cc3OC(N3CCCCC3)C2C)OCO4)cc1` (stereo not drawn): the TGI was 84.9 µM with CAKI-1 renal; more than 100 µM in the test with HT29 colon; more than 100 µM in the test with RPMI-8226 leukemia; more than 100 µM in the test with SK-MEL-2 melanoma; more than 100 µM in the test on SN12C renal; more than 100 µM in the test on UACC-257 melanoma. In the test on UO-31 renal, this molecule returned a TGI of more than 100 µM.

With `N#Cc1nc(/C=C/c2ccccc2)oc1N`, the TGI with CAKI-1 renal, in the test on HOP-92 NSCLC, in the test on HT29 colon, with RPMI-8226 leukemia, in the test on SK-MEL-2 melanoma and with SK-OV-3 ovarian was more than 100 µM in each case. The TGI in the test with SN12C renal, with UACC-257 melanoma and in the test on UO-31 renal was more than 100 µM each time.

Take `Cc1n(CC(=O)c2ccccc2)nc2sc(N)n[n+]12`: the TGI is more than 100 µM in the test on CAKI-1 renal; more than 100 µM in the test on HT29 colon; more than 100 µM in the test on RPMI-8226 leukemia; more than 100 µM in the test on SK-MEL-2 melanoma; 74.7 µM with SK-OV-3 ovarian; more than 100 µM in the test on SN12C renal. The TGI in the test on UACC-257 melanoma and in the test on UO-31 renal was more than 100 µM each time.

As for `O=C(c1ccccc1)N1C(=S)N(c2ccc([N+](=O)[O-])cc2)C(=Nc2ccccc2)C1=Nc1ccccc1`, the TGI with CAKI-1 renal, with HOP-92 NSCLC, in the test on HT29 colon, with RPMI-8226 leukemia, with SK-MEL-2 melanoma and with SK-OV-3 ovarian was more than 100 µM each time. Also, the TGI with SN12C renal, with UACC-257 melanoma and with UO-31 renal was more than 100 µM each time.

Regarding `C/C(N=Nc1nc2ccccc2o1)=C1/C=CC=CN1O`, the TGI in the test on CAKI-1 renal is 29 µM; with HOP-92 NSCLC it was 39.7 µM; in the test with HT29 colon it was more than 100 µM; in the test with RPMI-8226 leukemia, more than 100 µM; with SK-MEL-2 melanoma it was more than 100 µM; in the test on SK-OV-3 ovarian, more than 100 µM. Also, the TGI with SN12C renal, with UACC-257 melanoma and in the test with UO-31 renal was more than 100 µM in each case.

With `O=c1[nH]c2ccccc2c2oc(-c3ccccc3)nc12`, the TGI is 34.4 µM in the test with CAKI-1 renal; 56.7 µM with HOP-92 NSCLC; more than 100 µM in the test on HT29 colon; 70 µM with RPMI-8226 leukemia; more than 100 µM with SK-MEL-2 melanoma; more than 100 µM in the test with SK-OV-3 ovarian. The values for the TGI in the test on SN12C renal, in the test on UACC-257 melanoma and with UO-31 renal were 43.4 µM, more than 100 µM and more than 100 µM, respectively.

For `C/C=C\C(CC(=O)NCCC1CN(C(=O)c2ccccc2)c2ccccc21)CC(=O)OC` (stereo not drawn), the TGI with CAKI-1 renal, in the test with HOP-92 NSCLC, with HT29 colon, with RPMI-8226 leukemia, in the test with SK-MEL-2 melanoma and with SK-OV-3 ovarian was more than 100 µM each time. For the same molecule, the TGI with UACC-257 melanoma and in the test on UO-31 renal was more than 100 µM each time.

In the case of `CC(C)(NC1=NCCO1)c1ccccc1`, the TGI with CAKI-1 renal, in the test on HOP-92 NSCLC, in the test on HT29 colon, with RPMI-8226 leukemia, in the test with SK-MEL-2 melanoma and in the test on SK-OV-3 ovarian was more than 100 µM throughout. Moreover, the TGI with SN12C renal, in the test with UACC-257 melanoma and in the test with UO-31 renal was more than 100 µM each time.

As to `O=C1/C(=C/c2ccco2)NC(=S)N1CN1CCOCC1`, the TGI with HOP-92 NSCLC, in the test with HT29 colon, in the test on RPMI-8226 leukemia, with SK-MEL-2 melanoma, in the test on SK-OV-3 ovarian and with SN12C renal was more than 100 µM throughout. The TGI in the test with UACC-257 melanoma and with UO-31 renal was more than 100 µM throughout.

As to `N#Cc1c(N2CCN(c3ccc([N+](=O)[O-])cc3)CC2)[n+](=O)c2ccc(Cl)cc2n1[O-]`, the TGI is 2.7 µM in the test with CAKI-1 renal; 7.31 µM in the test with HT29 colon; 8.54 µM with SK-MEL-2 melanoma; more than 23.9 µM in the test on SK-OV-3 ovarian; 3.05 µM in the test on SN12C renal; 8.21 µM with UACC-257 melanoma. Besides, the TGI in the test on UO-31 renal is 5.75 µM.

With `COc1ccc(/C=N/n2c(Cc3ccc(Cl)cc3)n[nH]c2=O)c(OC)c1`, the TGI in the test with CAKI-1 renal was more than 100 µM; in the test on HOP-92 NSCLC it was 65.9 µM; with HT29 colon, 75.1 µM; in the test with RPMI-8226 leukemia, more than 100 µM; in the test with SK-MEL-2 melanoma it was more than 100 µM; in the test with SK-OV-3 ovarian, more than 100 µM. Moreover, the TGI with UACC-257 melanoma and in the test with UO-31 renal was more than 100 µM each time.
